Laboratory results: patent publication US5756345A, “Production of tryptophan by the bacterium Escherichia coli” (Degussa Aktiengesellschaft, priority 1995, dated 1998)
Read-outs that look alike come from different tables or passages of the source.

Tests used:
[1] = target: T1, anthranilate synthase encoded by trpE476 (Escherichia coli, UniProt P00895); assay: Feedback inhibition of anthranilate synthase by tryptophan, trpE476 enzyme; type: biochemical
T1 construct: plasmid pMU3019 in trpE-deleted JP6768 (trpDCBA functional), also trpE476DCBA on pMU91
Source text: Plasmid pMU3018 (FIG. 6) carries the tip promoter, the trpE gene and part of the trpD gene on a 2.9 kb SmaI HindIII fragment. pMU3018 is derived from pMU578, which is a single-copy Tp^R plasmid carrying a galK'-lac'ZA fusion, similar to the promoter cloning vector pMU575 (Andrews, A. E., B. Lawley, and A. J. Pittard. (1991). J. Bacteriol. 173: 5068-5078), but with a SmaI EcoRI BglII linker replacing the SmaI site, and the DraI fragments removed, deleting lacY and lacA. If pMU3018 DNA is digested with these two enzymes and the fragments electrophoresed in a low melting point agarose gel it is a simple matter to separate and purify the trpEtrpD' 2.9 kb fragment and the larger 13 kb vector fragment. This 2.9 kb fragment was mutagenised with 50 mM nitrous acid for 60 minutes following the method of Ray et al. (Ray, J. M., C. Yanofsky and R. Bauerle. (1988). J. Bacteriol. 170: 5500-5506), except that spermine (1 mM) was added to the mutagenesis mixture. After mutagenesis, the fragment was religated with the larger 13 kb fragment and the products of ligation were transformed into strain JP6768, an E. coli strain which is trpR^-, and in which the trpE gene has been deleted from the chromosome but trpDCB and A are fully functional (ΔtrpLE1413 (Miozzari, G. F. and C. Yanofsky. (1978). J. Bacteriol. 133: 1457-1466). Approximately 2,000 transformants were selected on Luria agar containing trimethoprim. These were screened for growth on minimal medium supplemented with the tryptophan analogue 5-fluorotryptophan at 15 mM. Clones which grew were potential feedback-resistant mutants altered in the enzyme anthranilate synthase. The anthranilate synthase activity of each of these clones was assayed in the presence of very high levels of tryptophan (13.5 g/l) using the assay described in Cho, K-O. and C. Yanofsky. (1988). J. Mol. Biol. 204: 41-50. […] The mutant allele present in this strain was called trpE483. […] FIG. 4 compares the feedback sensitivity of anthranilate synthase from a strain with the wild-type allele (JP6768/pMU3018) and strains with the trpE483 allele (JP6768/pMU3025) and with the trpE476 allele (JP6768/pMU3019).
The effect of temperature of incubation on both stability and productivity for an overproducing strain carrying the trpS378 allele and a plasmid carrying the trp operon encoding a feedback-resistant anthranilate synthase, is shown in FIG. 2. Low temperatures favour high stability and low productivity, whilst higher temperatures favour productivity at the expense of stability. […] The data in FIG. 2 is for JP6015/pMU91 and the primary selection is for Ser^+. JP6015 is derived from JP4153 (see Example 4) by introduction of sac^+ by transduction,and introduction of serA^- by cotransduction with a closely linked Tn10 transposon, and subsequent selection of a tetracycline sensitive derivative. pMU91 is a plasmid derived from pSC101 (Cohen, S. N. and A. C. Chang (1977). J. Bacteriol. 132: 734-737), carrying Tc^R, trpE476DCBA and serA^+ (see FIG. 9). The trpE476DCBA alelle was isolated using the specialized transducing phage .PHI.80pt190h (Herschfield, V. et al (1974). Proc. Natl. Acad. Sci. USA 71:3455-3459). A trpE^- strain carrying .PHI.80pt190h was plated on minimal medium containing 1 mM 5-methyltryptophan (5MT). A pool of cells was induced by ultraviolet light to produce a lysate which was used in a subsequent transduction, selecting Trp^+ 5MTR transductants. […]

[2] = system: anthranilate synthase (wild-type strains); conditions: read-out: tryptophan concentration giving about 50% inhibition of anthranilate synthase activity; cited from earlier work
[3] = system: anthranilate synthase of feedback-resistant mutants; conditions: cited from earlier work
[4] = target: anthranilate synthase encoded by trpE382 (Escherichia coli, UniProt P00895); assay: Feedback inhibition of anthranilate synthase by tryptophan, trpE382 enzyme; type: biochemical
[5] = target: anthranilate synthase encoded by trpE483 (Escherichia coli, UniProt P00895); assay: Feedback inhibition of anthranilate synthase by tryptophan, trpE483 enzyme; type: biochemical; conditions: tryptophan 13.5 g/l
Source text: Plasmid pMU3018 (FIG. 6) carries the tip promoter, the trpE gene and part of the trpD gene on a 2.9 kb SmaI HindIII fragment. pMU3018 is derived from pMU578, which is a single-copy Tp^R plasmid carrying a galK'-lac'ZA fusion, similar to the promoter cloning vector pMU575 (Andrews, A. E., B. Lawley, and A. J. Pittard. (1991). J. Bacteriol. 173: 5068-5078), but with a SmaI EcoRI BglII linker replacing the SmaI site, and the DraI fragments removed, deleting lacY and lacA. If pMU3018 DNA is digested with these two enzymes and the fragments electrophoresed in a low melting point agarose gel it is a simple matter to separate and purify the trpEtrpD' 2.9 kb fragment and the larger 13 kb vector fragment. This 2.9 kb fragment was mutagenised with 50 mM nitrous acid for 60 minutes following the method of Ray et al. (Ray, J. M., C. Yanofsky and R. Bauerle. (1988). J. Bacteriol. 170: 5500-5506), except that spermine (1 mM) was added to the mutagenesis mixture. […]

[6] = system: tryptophan auxotrophs with wild-type trpS allele able to actively transport tryptophan; assay: Growth response to tryptophan, auxotrophs with wild-type trpS and active transport; type: cell-based, Escherichia coli; conditions: minimal medium
[7] = system: tryptophan auxotroph unable to actively transport tryptophan (JP7847); assay: Growth response to tryptophan, trpS+ auxotroph defective in active transport; type: cell-based, Escherichia coli; conditions: minimal medium
Source text: (§1) JP6006 is derived from JP4153 by introduction of ΔtrpLE1413 by P1 transduction using TN10 as a linked marker and isolation of a tetracycline-sensitive derivative, followed by introduction of sac^+ by P1 transduction, using a P1 lysate grown on sac^+ strain GA122 (Alaeddinoglu, N. G. and H. P. Charles. (1979). J. Gen. Microbiol. 110: 47-59). JP4153 is aroF363 aroG103(FBR) aroH371(FBR) trpE382(FBR) trpR363 tyrR366 trpS378 aroP579 mtr-24 tna-1. JP7847 is a trpS^+ derivative of JP6006, isolated by P1 transduction.
(§2) Cells were grown in minimal medium supplemented with different levels of tryptophan at 30° C. Growth was measured by optical density with a Klett colorimeter and doubling times were calculated from the exponential phase of each growth curve.

[8] = system: transport negative tryptophan auxotroph carrying trpS378 (JP6006); assay: Growth response to tryptophan, trpS378 auxotroph defective in active transport; type: cell-based, Escherichia coli
Source text: as §1, §2

Structure (SMILES): N[C@@H](Cc1c[nH]c2ccccc12)C(=O)O [tryptophan, L-tryptophan]
- inhibition of activity ([1]; 1 mM tryptophan): less than 10%
- anthranilate synthase activity, % of full activity ([1]; 10 mM L-tryptophan): 70%
- resistance to feedback inhibition ([1]; tryptophan 1 g/l): good resistance
- inhibition of anthranilate synthase ([1]; tryptophan 12 g/l (60 mM)): 60-80%
- inhibition of activity ([1]; tryptophan 13.5 g/l): more than 60%
- IC50 [2]: ~0.02 mM
- IC50 ([3]; mutants conferring higher feedback-resistance (Aiba et al. 1982), read-out: 50% inhibition values): > 20 mM
- IC50 ([3]; mutants typically chosen for tryptophan overproduction (Aiba et al., CA 1182409), read-out: tryptophan concentration at which the 50% inhibition figure occurred): ~13 mM
- inhibition of activity ([4]; 1 mM tryptophan): less than 10%
- inhibition of anthranilate synthase ([4]; tryptophan 12 g/l (60 mM)): 60-80%
- inhibition of activity [5]: less than 10%
- tryptophan level supporting growth at a fast rate [6]: 50 µM
- tryptophan level required for optimal growth [7]: ~ 10^-3 M
- tryptophan level at which the strain grows with a normal doubling time ([7]; FIG. 1): ≥ 1 mM
- tryptophan required for good growth ([8]; 30° C., FIG. 1): at least 5 mM
- tryptophan concentration before maximum growth rate is achieved ([8]; minimal medium): 5 mM
